Legend:
Bacillus cereus = assay: Antimicrobial activity against Bacillus cereus at 30 ug/ml after 24 hr by well diffusion assay; type: functional; conditions: read-out: IZ
Escherichia coli = assay: Antimicrobial activity against Escherichia coli at 30 ug/ml after 24 hr by well diffusion assay; type: functional; conditions: read-out: IZ

Cc1ccc2c(c1)SC(C(=O)N1CCOCC1)=C(C(C)C)N2
zone of inhibition at 30 µg/mL (Bacillus cereus): 10 mm | zone of inhibition at 30 µg/mL (Escherichia coli): 7 mm

CC1=C(C(=O)N2CCOCC2)Sc2ccccc2N1
zone of inhibition at 30 µg/mL (Bacillus cereus): 12 mm | zone of inhibition at 30 µg/mL (Escherichia coli): 9 mm

CC1=C(C(=O)N2CCN(CCO)CC2)Sc2ccccc2N1
zone of inhibition at 30 µg/mL (Bacillus cereus): 7 mm | zone of inhibition at 30 µg/mL (Escherichia coli): 9 mm

O=C(N[C@H](CO)[C@H](O)c1ccc([N+](=O)[O-])cc1)C(Cl)Cl [CHLORAMPHENICOL]
zone of inhibition at 30 µg/mL (Bacillus cereus): 10 mm | zone of inhibition at 30 µg/mL (Escherichia coli): 9 mm

CC1=C(C(=O)N2CCOCC2)Sc2cc(C)ccc2N1
zone of inhibition at 30 µg/mL (Bacillus cereus): 9 mm | zone of inhibition at 30 µg/mL (Escherichia coli): 12 mm

CC1=C(C(=O)N2CCOCC2)Sc2cc(Cl)ccc2N1
zone of inhibition at 30 µg/mL (Bacillus cereus): 8 mm | zone of inhibition at 30 µg/mL (Escherichia coli): 8 mm

CC1=C(C(=O)N2CCN(CCO)CC2)Sc2cc(Cl)ccc2N1
zone of inhibition at 30 µg/mL (Bacillus cereus): 9 mm | zone of inhibition at 30 µg/mL (Escherichia coli): 11 mm

From ChEMBL document CHEMBL3045287, “Synthesis and antimicrobial activity of morpholinyl/piperazinylbenzothiazines” (2012)
